Data: EP0105658A1, “Beta-lactam compounds” (BEECHAM GROUP PLC, priority 1982, dated 1984)
≈ marks a conversion by molar mass, not a printed value. Like-named read-outs stand apart in the source and are kept apart here.

Assays:
S typhimurium CT10 = assay: MIC, antibacterial activity (microtitre using nutrient broth); type: cell-based; settings: * racemic, not corrected for presence of inactive enantiomer
R + E coli = assay: as above; type: cell-based; settings: * racemic, not corrected for presence of inactive enantiomer
[1] = Stability in kidney preparations (pig); type: in vitro ADME; settings: 100 mg/ml solubilised in 5% Triton X-100, * racemic compounds: figures based on stability of bio-active enantiomer
S aureus Russell = assay: MIC, antibacterial activity (microtitre using nutrient broth); type: cell-based; settings: * racemic, not corrected for presence of inactive enantiomer
[2] = Stability in kidney preparations (human); type: in vitro ADME
Pseudomonas aeruginosa A = assay: MIC, antibacterial activity (microtitre using nutrient broth); type: cell-based; settings: for MIC: Pseudomonas aeruginosa
E. coli JT39 = assay: MIC against E. coli JT39; type: cell-based; design: unit not given here
[3] = 15% solubilised in 5% Triton X-100, 60 minutes, * racemic compounds: figures based on stability of bio-active enantiomer
[4] = Microtitre using Nutrient broth, * racemic, not corrected for presence of inactive enantiomer, read-out: MIC P aeruginosa A

Row | Compound | MIC (S typhimurium CT10) [µg/mL] | MIC (R + E coli) [µg/mL] | % left after 60 minutes Pig Kidney Acetone Powder [1] [%] | MIC (S aureus Russell) [µg/mL] | % left after 60 minutes Human Kidney Sonicate [2, 3] [%] | MIC (Pseudomonas aeruginosa A; [4]) [µg/mL] | MIC S typhimurium CT10 (S typhimurium CT10) [µg/mL] | MIC R + E coli (R + E coli) [µg/mL] | MIC S aureus Russell (S aureus Russell) [µg/mL] | MIC P aeruginosa A (Pseudomonas aeruginosa A; Microtitre using Nutrient broth, * racemic, not corrected for presence of inactive enantiomer) [µg/mL] | MIC against E. coli JT39 (E. coli JT39) | MIC (Pseudomonas aeruginosa A; read-out: MIC against Pseudomonas aeruginosa A) [µg/mL] | % left after 60 minutes Human Kidney Sonicate ([2]; human, 60 min) [%]
1 | C[C@@H](O)[C@H]1C(=O)N2C(C(=O)O)=C(S/C=C\CN)C[C@H]12 (racemic) [Example 13, (5RS, 6SR)-3-[(Z)-3-Aminoprop-1-enylthio]-b-[(1RS)-1-hydroxyethyl]-7-oxo-1-azabicyclo[3.2.0]hept-2-ene-2-carboxylic acid] | 0.6 | 0.4 | 40 | 0.08 | 39 | 25 |  |  |  |  |  |  | 
2 | C[C@H](O)[C@@H]1C(=O)N2C(C(=O)O)=C(S/C=C\CN)C[C@H]12 [Example 1] |  |  | 39 |  | 40 |  |  |  |  |  | 0.4 | 6.2 (≈ 21.8 µM) | 
3 | C/C(=C\CN)SC1=C(C(=O)O)N2C(=O)[C@@H]([C@H](C)O)[C@H]2C1 [Example 16, (5R, 6R)-3-[(E)-3-amino-1-methylprop-1-enylthio]-6-[(S)-1-hydroxyethyl]-7-oxo-1-azabicyclo[3.2.0]hept-2-ene-2-carboxylate] | 0.2 | 1.6 | 38 | < 0.1 | 13 | 25 |  |  |  |  |  |  | 
4 | C[C@H](O)[C@@H]1C(=O)N2C(C(=O)O)=C(S/C=C/CN)C[C@H]12 [Example 11, (5R,6R)-3-[(E)-3-aminoprop-1-enylthio]-6-[(S)-1-hydroxyethyl]-7-oxo-1-azabicyelo[3.2.0]hept-2-ene-2-carboxylic acid] | 0.4 | < 0.1 | 6 | < 0.1 | 7 | 12.5 |  |  |  |  |  |  | 
5 | C[C@@H](O)[C@H]1C(=O)N2C(C(=O)O)=C(S/C=C\CN)C[C@H]12 [Example 2, (5R,6S)-3-[(Z)-3-aminoprop-1-enylthio]-6-[(R)-1-hydroxyethyl]-7-oxo-1-azabicy,clo[3.2.0]hept-2-ene-2-carboxylic acid] |  |  |  |  |  |  | 0.6 | 0.3 | 0.08 | 25 |  |  | 
6 | C[C@@H](O)[C@H]1C(=O)N2C(C(=O)O)=C(S/C=C/CN)C[C@H]12 [Example 12, (5R, 6S)-3-[(E)-3-aminoprop-1-enylthio]-6-[(R)-1-hydroxyethyl]-7-oxo-1-azabicyclo[3.2.0]hept-2-ene-2-carboxylic acid] | 0.2 |  |  | < 0.1 |  | 12.5 |  |  |  |  |  |  | 5

The next lines start with results.

Row | MIC (S typhimurium CT10) [µg/mL] | MIC (R + E coli) [µg/mL] | % left after 60 minutes Pig Kidney Acetone Powder [1] [%] | MIC (S aureus Russell) [µg/mL] | % left after 60 minutes Human Kidney Sonicate [2, 3] [%] | MIC (Pseudomonas aeruginosa A; [4]) [µg/mL] | MIC S typhimurium CT10 (S typhimurium CT10) [µg/mL] | MIC R + E coli (R + E coli) [µg/mL] | MIC S aureus Russell (S aureus Russell) [µg/mL] | MIC P aeruginosa A (Pseudomonas aeruginosa A; Microtitre using Nutrient broth, * racemic, not corrected for presence of inactive enantiomer) [µg/mL] | Compound | MIC against E. coli JT39 (E. coli JT39) | MIC (Pseudomonas aeruginosa A; read-out: MIC against Pseudomonas aeruginosa A) [µg/mL] | % left after 60 minutes Human Kidney Sonicate ([2]; human, 60 min) [%]
7 | 0.4 | 0.4 | 36 | < 0.1 | 23 | 25 |  |  |  |  | C/C(=C\CN)SC1=C(C(=O)O)N2C(=O)[C@H]([C@@H](C)O)[C@H]2C1 (racemic) [Example 14, (5RS, 6SR)-3-[(E)-3-amino-1-methylprop-1-enylthio]-6-[(RS)-1-hydroxyethyl]-7-oxo=1-azabicyclo[3.2.0]hept-2-ene-2-carboxylic acid] |  |  | 
8 | < 0.1 | 1.6 | 78 | < 0.1 | 51 | 25 |  |  |  |  | C/C(=C/CN)SC1=C(C(=O)O)N2C(=O)[C@@H]([C@H](C)O)[C@H]2C1 [Example 8] |  |  | 
9 | 0.2 |  |  | 0.1 |  | 25 |  |  |  |  | C/C(=C/CN)SC1=C(C(=O)O)N2C(=O)[C@H]([C@@H](C)O)[C@H]2C1 [Example 10, (5R,6S)-3-[(Z)-3-amino-1-methylprop-1-enylthio]-6-[(R)-1-hydroxyethyl]-7-oxo-1-azabicyclo[3.2.0]hept-2-ene-2-carboxylic acid] |  |  | 56
